According to patent US20220315532A1, “METHODS FOR PREPARING CDK4/6 INHIBITOR AND SALT AND INTERMEDIATE THEREOF” (Gan & Lee Pharmaceuticals Co., Ltd., priority 2019, published 2022):

Assays:
Assay type in all cases: physicochemical
[1] = physical and chemical stability under high humidity and illumination; details: compared with free base
[2] = solubility in simulated intestinal fluid (FaSSIF, FeSSIF); details: compared with the free base
[3] = hygroscopicity and crystalline form after moisture absorption
solubility in water = details: compared with the free base

## CC1=Nc2c(F)cc(-c3nc(Nc4ccc(C5CCN(C)CC5)cn4)ncc3F)cc2C12CCCC2.O=C(O)/C=C/C(=O)O [fumarate, fumarate of 5-fluoro-4-(7′-fluoro-2′-methylspiro[cyclopentane-1,3′-indol]-5′-yl)-N-(5-(1-methylpiperidin-4-yl)pyridin-2-yl)pyrimidin-2-amine]
[1]
  physical and chemical stability: better physical and chemical stability
[2]
  solubility in fasted state simulated intestinal fluid (FaSSIF): higher solubility
[3]; after moisture absorption
  crystalline form stability: stable in crystalline form
[3]; compared with the free base
  hygroscopicity: low hygroscopicity comparable to the free base
Solubility in water
  solubility in water: higher solubility
